Measurements as given in patent US10611750B2, “Tetrahydroquinoline compositions as bet bromodomain inhibitors” (FORMA Therapeutics, Inc., priority 2013, dated 2020).
Where two headings read alike, the source gives them in different places. One block for each compound: values may come before it.

What was measured:
[1] = biological target: T1, BRD4 Bromodomain 1 (BRD4 BD1) (Homo sapiens, UniProt O60885); assay: AlphaScreen binding assay, BRD4 BD1; conditions: His-tagged BRD4 BD1 50 nM, biotinylated H4 (1-21) K5/8/12/16 tetra-acetylated peptide 50 nM, compounds listed under IC50 range headings
T1 construct: 44-168 and BRD4 BD2
Outline: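 Compound dilution series were mixed with His-tagged BRD4 bromodomain and biotinylated tetra-acetylated H4 (1-21) peptide at pH 7.3 (BD1 and peptide at 50 nM, BD2 and peptide at 100 nM). Donor and acceptor beads were then added, and plates were equilibrated at least 1 h before reading. IC50 values were fitted with a four-parameter logistic model.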

[2] = test system: acute myelocytic leukemia (AML) cell line MV4-11; assay: Oncology cell growth assay (3-day proliferation, CellTiter-Glo); assay type: cell-based; conditions: Homo sapiens, MV4-11 cells, 3000 cells/well, compounds listed under IC50 range headings, read-out: MV411 IC50 (gIC50, inhibition of proliferation)
Outline: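 Compounds were serially diluted 3-fold in DMSO, giving final well concentrations from 10 down to 0.0045 μM. MV4-11 cells were then seeded at 3000 cells/well in RPMI 1640 with 10% FBS and incubated 72 hours. CellTiter-Glo signal was measured and gIC50 obtained by four-parameter logistic regression.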

SMILES: COC(=O)N1c2ccc(-c3csc(C4(F)CCNCC4)n3)c(OC3CCC3)c2CC[C@@H]1C [I-281, methyl (S)-5-cyclobutoxy-6-(2-(4-fluoropiperidin-4-yl)thiazol-4-yl)-2-methyl-3,4-dihydroquinoline-1(2H)-carboxylate]
IC50 [1]: 100 to 1000 nM
IC50 ([2]; MV4-11, 72 h): 500 to 1000 nM

SMILES: COC(=O)N1c2ccc(-c3cnn(C4CCNCC4)c3F)c(OC3CCC3)c2CC[C@@H]1C [I-360, methyl (S)-5-cyclobutoxy-6-(5-fluoro-1-(piperidin-4-yl)-1H-pyrazol-4-yl)-2-methyl-3,4-dihydroquinoline-1(2H)-carboxylate]
IC50 [1]: 100 to 1000 nM
IC50 ([2]; 72 hours): < 500 nM

SMILES: COC(=O)N1c2ccc(-c3csc(N4CCNCC4)n3)c(OC3CCC3)c2CC[C@@H]1C [I-316, (S)-methyl 5-cyclobutoxy-2-methyl-6-(2-(piperazin-1-yl)thiazol-4-yl)-3,4-dihydroquinoline-1(2H)-carboxylate]
IC50 [1]: 100 to 1000 nM
IC50 ([2]; MV4-11, 72 h): < 500 nM

SMILES: C[C@H]1CCc2c(OC3CCC3)c(-c3cnn(C4CCNCC4)c3)cc(F)c2N1C(=O)C1CC1 [I-103, (S)-(5-cyclobutoxy-8-fluoro-2-methyl-6-(1-(piperidin-4-yl)-1H-pyrazol-4-yl)-3,4-dihydroquinolin-1(2H)-yl)(cyclopropyl)methanone]
IC50 [1]: 100 to 1000 nM
IC50 ([2]; MV4-11, 72 h): < 500 nM

SMILES: C[C@H]1CCc2c(ccc(-c3cn(C)cn3)c2OC2CCC2)N1C(=O)C1CC1 [I-57, (S)-(5-cyclobutoxy-2-methyl-6-(1-methyl-1H-imidazol-4-yl)-3,4-dihydroquinolin-1(2H)-yl)(cyclopropyl)methanone]
IC50 [1]: 100 to 1000 nM
IC50 ([2]; MV4-11, 72 h): < 500 nM

SMILES: COC(=O)N1c2ccc(-c3csc(C4(O)CCNCC4)n3)c(OC3CCC3)c2CC[C@@H]1C [I-280, methyl (S)-5-cyclobutoxy-6-(2-(4-hydroxypiperidin-4-yl)thiazol-4-yl)-2-methyl-3,4-dihydroquinoline-1(2H)-carboxylate]
IC50 [1]: 1000 to 10000 nM
IC50 ([2]; MV4-11, 72 h): < 500 nM

SMILES: C[C@H]1CCc2c(ccc(-c3cnn([C@@H]4CCNC[C@@H]4F)c3)c2OC2CCC2)N1C(=O)C1CC1 [I-369, (2S)-5-cyclobutoxy-1-cyclopropanecarbonyl-6-{1-[(3S,4R)-3-fluoropiperidin-4-yl]-1H-pyrazol-4-yl}-2-methyl-1,2,3,4-tetrahydroquinoline]
IC50 [1]: 100 to 1000 nM
IC50 ([2]; MV4-11, 72 h): < 500 nM

SMILES: CC(=O)N1c2c(F)cc(-c3cn[nH]c3)c(Oc3ccccc3)c2CC[C@@H]1C [I-242, (S)-1-(8-fluoro-2-methyl-5-phenoxy-6-(1H-pyrazol-4-yl)-3,4-dihydroquinolin-1(2H)-yl)ethanone]
IC50 [1]: 100 to 1000 nM
IC50 ([2]; MV4-11, 72 h): < 500 nM

SMILES: COC(=O)N1c2c(F)cc(-c3cnn(C4CC4)c3)c(OC3CCC3)c2CC[C@@H]1C [I-71, (S)-methyl 5-cyclobutoxy-6-(1-cyclopropyl-1H-pyrazol-4-yl)-8-fluoro-2-methyl-3,4-dihydroquinoline-1(2H)-carboxylate]
IC50 [1]: 100 to 1000 nM
IC50 ([2]; MV4-11, 72 h): 500 to 1000 nM

SMILES: COC(=O)N1c2c(F)cc(-c3cn[nH]c3)c(Oc3ccccc3)c2CC[C@@H]1C [I-240, (S)-methyl 8-fluoro-2-methyl-5-phenoxy-6-(1H-pyrazol-4-yl)-3,4-dihydroquinoline-1(2H)-carboxylate]
IC50 [1]: 100 to 1000 nM
IC50 ([2]; MV4-11, 72 h): < 500 nM

SMILES: CC(=O)N1c2c(F)cc(-c3cnn(C4CC4)c3)c(OC3CCC3)c2CC[C@@H]1C [I-73, (S)-1-(5-cyclobutoxy-6-(1-cyclopropyl-1H-pyrazol-4-yl)-8-fluoro-2-methyl-3,4-dihydroquinolin-1(2H)-yl)ethanone]
IC50 [1]: 100 to 1000 nM
IC50 ([2]; MV4-11, 72 h): 500 to 1000 nM

SMILES: C[C@H]1CCc2c(ccc(-c3cn(C)nn3)c2Oc2ccccc2C#N)N1C(=O)C1CC1 [I-154, (S)-2-(1-(cyclopropanecarbonyl)-2-methyl-6-(1-methyl-1H-1,2,3-triazol-4-yl)-1,2,3,4-tetrahydroquinolin-5-yloxy)benzonitrile]
IC50 [1]: 1000 to 10000 nM
IC50 ([2]; MV4-11, 72 h): < 500 nM

SMILES: C[C@H]1CCc2c(Oc3ccccc3)c(-c3cn(C)nn3)cc(F)c2N1C(=O)C1CC1 [I-321, (S)-cyclopropyl(8-fluoro-2-methyl-6-(1-methyl-1H-1,2,3-triazol-4-yl)-5-phenoxy-3,4-dihydroquinolin-1(2H)-yl)methanone]
IC50 [1]: 100 to 1000 nM
IC50 ([2]; MV4-11, 72 h): < 500 nM

SMILES: COC(=O)N1c2ccc(-c3cnn([C@@H]4CCNC[C@H]4F)c3)c(OC3CCC3)c2CC[C@@H]1C [I-367, methyl (2S)-5-cyclobutoxy-6-{1-[(3R,4R)-3-fluoropiperidin-4-yl]-1H-pyrazol-4-yl}-2-methyl-1,2,3,4-tetrahydroquinoline-1-carboxylate]
IC50 [1]: 100 to 1000 nM
IC50 ([2]; MV4-11, 72 h): < 500 nM

SMILES: C[C@H]1CCc2c(ccc(-c3cn(C)nn3)c2Oc2ccccc2)N1C(=O)C1CC1 [I-219, (S)-cyclopropyl(2-methyl-6-(1-methyl-1H-1,2,3-triazol-4-yl)-5-phenoxy-3,4-dihydroquinolin-1(2H)-yl)methanone]
IC50 [1]: 100 to 1000 nM
IC50 ([2]; MV4-11, 72 h): < 500 nM

SMILES: C[C@H]1CCc2c(ccc(-c3nnc(N)s3)c2OC2CCC2)N1C(=O)C1CC1 [I-127, (S)-(6-(5-amino-1,3,4-thiadiazol-2-yl)-5-cyclobutoxy-2-methyl-3,4-dihydroquinolin-1(2H)-yl)(cyclopropyl)methanone]
IC50 [1]: 100 to 1000 nM
IC50 ([2]; MV4-11, 72 h): < 500 nM

SMILES: C[C@H]1CCc2c(ccc(-c3cnn4c3N(S(C)(=O)=O)CC4)c2OC2CCC2)N1C(=O)C1CC1 [I-279, ((2S)-5-cyclobutoxy-2-methyl-6-(1-(methylsulfonyl)-2,3-dihydro-1H-pyrazolo[1,5-a]imidazol-7-yl)-3,4-dihydroquinolin-1 (2H)-yl)(cyclopropyl)methanone]
IC50 [1]: 1000 to 10000 nM
IC50 ([2]; MV4-11, 72 h): > 1000 nM

SMILES: C[C@H]1CCc2c(ccc(-c3cn(C)cn3)c2Oc2ccccc2)N1C(=O)C1CC1 [I-221, (S)-cyclopropyl(2-methyl-6-(1-methyl-1H-imidazol-4-yl)-5-phenoxy-3,4-dihydroquinolin-1(2H)-yl)methanone]
IC50 [1]: 100 to 1000 nM
IC50 ([2]; MV4-11, 72 h): < 500 nM

Second part, the compound after the results:

IC50 [1]: 100 to 1000 nM
IC50 ([2]; MV4-11, 72 h): < 500 nM
SMILES: COC(=O)N1c2ccc(-c3cnn(C4CCNCC4)c3)c(Oc3cccc(F)c3F)c2CC[C@@H]1C [I-269, (S)-methyl 5-(2,3-difluorophenoxy)-2-methyl-6-(1-(piperidin-4-yl)-1H-pyrazol-4-yl)-3,4-dihydroquinoline-1(2H)-carboxylate]

IC50 [1]: 100 to 1000 nM
IC50 ([2]; MV4-11, 72 h): < 500 nM
SMILES: COC(=O)N1c2ccc(-c3cnn(C4CNC4)c3)c(Oc3cc(F)ccc3F)c2CC[C@@H]1C [I-271, (S)-methyl 6-(1-(azetidin-3-yl)-1H-pyrazol-4-yl)-5-(2,5-difluorophenoxy)-2-methyl-3,4-dihydroquinoline-1(2H)-carboxylate]

IC50 [1]: < 100 nM
IC50 ([2]; MV4-11, 72 h): < 500 nM
SMILES: C[C@H]1CCc2c(ccc(-c3cn(C4CCNCC4)nn3)c2Oc2ccccc2)N1C(=O)C1CC1 [I-312, (S)-cyclopropyl(2-methyl-5-phenoxy-6-(1-(piperidin-4-yl)-1H-1,2,3-triazol-4-yl)-3,4-dihydroquinolin-1(2H)-yl)methanone]

IC50 [1]: 100 to 1000 nM
IC50 ([2]; MV4-11, 72 h): < 500 nM
SMILES: COC(=O)N1c2ccc(-c3cnn(C4CC5CNCC5C4)c3)c(Oc3ccc(F)cc3)c2CC[C@@H]1C (stereo partly drawn) [I-186, (2S)-methyl 5-(4-fluorophenoxy)-2-methyl-6-(1-(octahydrocyclopenta[c]pyrrol-5-yl)-1H-pyrazol-4-yl)-3,4-dihydroquinoline-1(2H)-carboxylate]

IC50 [1]: < 100 nM
IC50 ([2]; MV4-11, 72 h): < 500 nM
SMILES: C[C@H]1CCc2c(ccc(-c3cnn(C4CCNCC4)n3)c2Oc2ccccc2)N1C(=O)C1CC1 [I-311, (S)-cyclopropyl(2-methyl-5-phenoxy-6-(2-(piperidin-4-yl)-2H-1,2,3-triazol-4-yl)-3,4-dihydroquinolin-1(2H)-yl)methanone]

IC50 [1]: 100 to 1000 nM
IC50 ([2]; MV4-11, 72 h): < 500 nM
SMILES: C[C@H]1CCc2c(ccc(-c3cnn(C4CCNCC4)c3)c2Oc2cccc(F)c2)N1C(=O)C1CC1 [I-171, (S)-cyclopropyl(5-(3-fluorophenoxy)-2-methyl-6-(1-(piperidin-4-yl)-1H-pyrazol-4-yl)-3,4-dihydroquinolin-1(2H)-yl)methanone]

IC50 [1]: 100 to 1000 nM
IC50 ([2]; MV4-11, 72 h): < 500 nM
SMILES: C[C@H]1CCc2c(ccc(-c3cnn(C4CCNCC4)c3)c2Oc2ccccc2F)N1C(=O)C1CC1 [I-260, (S)-cyclopropyl(5-(2-fluorophenoxy)-2-methyl-6-(1-(piperidin-4-yl)-1H-pyrazol-4-yl)-3,4-dihydroquinolin-1(2H)-yl)methanone]

IC50 [1]: 100 to 1000 nM
IC50 ([2]; MV4-11, 72 h): 500 to 1000 nM
SMILES: C[C@H]1CCc2c(ccc(-c3cnn(C4CCOCC4)c3)c2OC2CCC2)N1C(=O)C1CC1 [I-507]

IC50 [1]: 100 to 1000 nM
IC50 ([2]; MV4-11, 72 h): < 500 nM
SMILES: Cc1cccc(Oc2c(-c3cnn(C4CCNCC4)c3)ccc3c2CC[C@H](C)N3C(=O)C2CC2)n1 [I-331, (S)-cyclopropyl(2-methyl-5-(6-methylpyridin-2-yloxy)-6-(1-(piperidin-4-yl)-1H-pyrazol-4-yl)-3,4-dihydroquinolin-1(2H)-yl)methanone]

IC50 [1]: 100 to 1000 nM
IC50 ([2]; MV4-11, 72 h): < 500 nM
SMILES: COC(=O)N1c2ccc(-c3cnn(C4CCNCC4)c3)c(Oc3cccc(C)n3)c2CC[C@@H]1C [I-333, (S)-methyl 2-methyl-5-(6-methylpyridin-2-yloxy)-6-(1-(piperidin-4-yl)-1H-pyrazol-4-yl)-3,4-dihydroquinoline-1(2H)-carboxylate]
